ChEMBL document CHEMBL4699528, “Discovery and Optimization of Non-bile Acid FXR Agonists as Preclinical Candidates for the Treatment of Nonalcoholic Steatohepatitis” (J Med Chem, 2020)

What was measured:
in vivo [1] = conditions: Sprague-Dawley, rat, liver, po, 3 mg/kg
in vivo [2] = conditions: Sprague-Dawley, rat, plasma, po, 3 mg/kg
in vivo [3] = conditions: Sprague-Dawley, rat, plasma, po, 3 mg/kg; remark: listed apart in the source
in vivo [4] = conditions: Sprague-Dawley, rat, liver, po, 3 mg/kg; remark: listed apart in the source
in vivo [5] = conditions: Sprague-Dawley, rat, iv, 1 mg/kg
in vivo [6] = conditions: Sprague-Dawley, rat, po, 3 mg/kg
in vivo [7] = conditions: Sprague-Dawley, rat, po, 3 mg/kg; remark: listed apart in the source
in vivo [8] = conditions: Sprague-Dawley, rat, iv, 1 mg/kg; remark: listed apart in the source
in vivo [9] = conditions: Sprague-Dawley, rat, 3 mg/kg
in vivo [10] = conditions: Sprague-Dawley, rat, po, 3 mg/kg; remark: listed apart in the source
in vivo [11] = conditions: Sprague-Dawley, rat, iv, 1 mg/kg; remark: listed apart in the source
in vivo [12] = conditions: Sprague-Dawley, rat, po, 3 mg/kg; remark: listed apart in the source
in vivo [13] = conditions: Sprague-Dawley, rat, po, 3 mg/kg; remark: listed apart in the source

| Structure (SMILES) | concentration at 4 h (in vivo [1]) | concentration at 1 h (in vivo [2]) | concentration at 4 h (in vivo [3]) | concentration at 1 h (in vivo [4]) | MRT inf (in vivo [5]) | Cmax (in vivo [6]) | half-life (in vivo [7]) | clearance (in vivo [8]) | Vd (in vivo [9]) | bioavailability (in vivo [10]) | AUC(0-t) (in vivo [11]) | Tmax (in vivo [12]) | AUC(0-t) (in vivo [13]) |
| --- | --- | --- | --- | --- | --- | --- | --- | --- | --- | --- | --- | --- | --- |
| CCn1c(C(=O)O)cc2ccc(N3CCC(F)(COCc4c(-c5c(Cl)cccc5Cl)noc4C4CC4)CC3)cc21 | 186 ng/mL | 6.3 ng/mL | 12.6 ng/mL | 72 ng/mL | – | – | – | – | – | – | – | – | – |
| O=C(O)c1cc(F)c2nc(N3C4CCC3CC(F)(COCc3c(-c5ccccc5OC(F)(F)F)noc3C3CC3)C4)sc2c1 (configuration not stated) | 612 ng/mL | 1140 ng/mL | 165 ng/mL | 2340 ng/mL | 102 min | 590 ng/mL | 1220 min | 8.54 mL/min/kg | 0.84 L/kg | 32.2% | 1930 ng·h/mL | 22.8 min | 1860 ng·h/mL |

The next lines start with the values.

| concentration at 4 h (in vivo [1]) | concentration at 1 h (in vivo [2]) | concentration at 4 h (in vivo [3]) | concentration at 1 h (in vivo [4]) | MRT inf (in vivo [5]) | Cmax (in vivo [6]) | half-life (in vivo [7]) | clearance (in vivo [8]) | Vd (in vivo [9]) | bioavailability (in vivo [10]) | AUC(0-t) (in vivo [11]) | Tmax (in vivo [12]) | AUC(0-t) (in vivo [13]) | Structure (SMILES) |
| --- | --- | --- | --- | --- | --- | --- | --- | --- | --- | --- | --- | --- | --- |
| 929 ng/mL | 241 ng/mL | 94.8 ng/mL | 1550 ng/mL | – | – | – | – | – | – | – | – | – | O=C(O)c1cc(F)c2nc(N3CCC(F)(COCc4c(-c5c(F)cccc5Cl)noc4C4CC4)CC3)sc2c1 |
| 772 ng/mL | 24 ng/mL | 49 ng/mL | 656 ng/mL | 30.6 min | 117 ng/mL | 58.8 min | 26.4 mL/min/kg | 0.81 L/kg | 5.64% | 611 ng·h/mL | 15 min | 103 ng·h/mL | CCn1cc(C(=O)O)c2ccc(N3CCC(F)(COCc4c(-c5c(F)cccc5Cl)noc4C4CC4)CC3)cc21 |
| 153 ng/mL | 19.3 ng/mL | 52.1 ng/mL | 121 ng/mL | 21 min | 283 ng/mL | 133 min | 82.6 mL/min/kg | 1.74 L/kg | 32.4% | 201 ng·h/mL | 15 min | 195 ng·h/mL | Cn1cc(C(=O)O)c2ccc(N3CCC(OCc4c(-c5c(Cl)cccc5Cl)noc4C4CC4)CC3)cc21 [TERN-101] |
